Assay results: paper PMC6326523, “A high-throughput screen to identify novel small molecule inhibitors of the Werner Syndrome Helicase-Nuclease (WRN)” (PLoS ONE, 2019)
Read-outs that look alike come from different tables or passages of the source.

Assays:
Format in all cases: biochemical
[1] = biological target: T1, full-length WRN helicase (Homo sapiens, UniProt Q14191); test: Radiometric helicase inhibitor assay, full-length WRN unwinding of FORKR DNA substrate; details: for remaining activity at 50 µM: read-out: % Control WRN Helicase Activity; for IC50: radiometric assay, compound 0-100 μM, read-out: IC50;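 for all read-outs here: WRN preincubated with compound 15 min at room temperature, then unwinding run 15 min at 37 °C with 2 mM ATP, relative to WRN unwinding without compound (100%)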
T1 construct: Full length recombinant WRN [18], BLM [19], and FANCJ [20] proteins were purified from insect cells; made in house; host or cells: insect cells
Procedure: Fifteen μL of reaction buffer was added to a microcentrifuge tube followed by the addition of 1 μL of selected compounds (0.5–100 μM final concentration) or DMSO. One μL of WRN (full length), RECQ1, FANCJ, BLM or control was added to each reaction and incubated at room temperature for 15 min. Three μL of substrate (0.5 nM FORKR and 2 mM ATP final concentrations) were added to all reactions which were incubated at 37°C for 15 min. Reactions were stopped with the addition of 20 μL of 2X STOP dye containing EDTA, glycerol, bromphenol blue and xylene cyanol. Samples were electrophoresed for 1.5 hr at 200 V on a 12% non-denaturing PAGE gel in 1X TBE Buffer.
The compounds were tested at a single concentration of 50 μM in the radiometric helicase assay with full-length recombinant WRN protein (1 nM) and the FORKR DNA substrate (0.5 nM) as described in the Materials and Methods section.
For each compound, we performed titrations over a wide range of concentrations with a fixed concentration of full-length WRN protein (1 nM), and quantitated unwinding as a percentage of full-length WRN unwinding of the FORKR DNA substrate (0.5 nM) in the absence of compound (Fig 6A and 6B, S3 Fig). […] In addition to determining an IC50 value for each compound, we also conducted helicase assays to determine the reversibility of inhibition by each compound tested. […] The reaction was diluted 100-fold with the addition of DNA substrate (0.5 nM final concentration) and ATP (2 mM final concentration) and unwinding was measured (Fig 7A–7D, S4 Fig). Inhibition was either classified as reversible, partially reversible, minimally reversible, or irreversible based on the ability of helicase activity to recover after dilution of the compound 100-fold.

[2] = biological target: T1, full-length WRN helicase; test: Radiometric helicase inhibitor reversibility assay (100-fold dilution); parameters: key to Reversibility: (-) = irreversible; (+) = minimally reversible; (++) = partially reversible; (+++) = reversible; details: for Reversibility: WRN 100 nM preincubated at 10-fold IC50, diluted 100-fold, unwinding 0-16 min; for Reversibility of inhibition (in words): full-length WRN
Procedure: WRN (full length, 100 nM concentration) was incubated with each small molecule inhibitor at a concentration 10-fold higher than the IC50 for that inhibitor, in a 10 μL reaction at room temperature. 1.5 μL of this reaction was added to 148.5 μL of reaction salts with 2 mM ATP, 0.5 nM FORKR reducing the full length WRN concentration to 1 nM and the drug concentration to 10-fold less than its IC50. Reactions were placed at 37°C and 20 μL of reaction were removed at specific intervals (0–16 min) and quenched with 20 μL of 2X STOP dye containing EDTA, glycerol, bromphenol blue and xylene cyanol. Samples were electrophoresed for 1.5 hr at 200 V on a 12% non-denaturing PAGE gel in 1X TBE Buffer.
Eighteen compounds were selected based on potency of inhibition in both the screening and radiometric assays, and exclusion of compounds with undesired chemical features. For each compound, we performed titrations over a wide range of concentrations with a fixed concentration of full-length WRN protein (1 nM), and quantitated unwinding as a percentage of full-length WRN unwinding of the FORKR DNA substrate (0.5 nM) in the absence of compound (Fig 6A and 6B, S3 Fig). […] In addition to determining an IC50 value for each compound, we also conducted helicase assays to determine the reversibility of inhibition by each compound tested. Details of the assay can be found in the Materials and Methods section, but briefly 100 nM WRN was incubated with each compound at a concentration 10-fold higher than its IC50 value. The reaction was diluted 100-fold with the addition of DNA substrate (0.5 nM final concentration) and ATP (2 mM final concentration) and unwinding was measured (Fig 7A–7D, S4 Fig). Inhibition was either classified as reversible, partially reversible, minimally reversible, or irreversible based on the ability of helicase activity to recover after dilution of the compound 100-fold. Table 2 summarizes the IC50 values and reversibility for each compound and includes IC50 values obtained from the screens for comparison.

[3] = biological target: T2, WRN helicase domain fragment (Homo sapiens, UniProt Q14191); test: WRN-hel-f2 protocol qHTS confirmatory (15 compound confirmatory assay); details: NA = Not Active
T2 construct: GST (N); made in house
Procedure: (§1) The structures of the members of this collection are available in the PubChem portal https://pubchem.ncbi.nlm.nih.gov/. For both the 350,000 small molecule collection and the LOPAC^1280 screens, 3 μL of GST-WRN500-946 or reaction buffer only were dispensed using a solenoid-valve nanoliter dispenser into a black 1536-well plate (Greiner). Twenty three nL of each serially diluted compound (0.08–50 μM for the LOPAC screen and 0.003–114 μM for the larger library screen) or control were added to each well using a Kalypsys pintool equipped with a 1536-pin array. Plates were incubated at room temperature for 15 min, followed by initiation of the reactions via the addition of 1 μL of substrate (100 nM FORKF and 2 mM ATP final concentrations). Plates were transferred to a ViewLux high-throughput CCD imager and fluorescence was measured in kinetic mode using an excitation filter of 525 nm and emission filter of 598 nm.

[4] = biological target: T3, GST-WRN500-946 helicase domain fragment (Homo sapiens, UniProt Q14191); test: High-throughput fluorometric helicase screen, PubChem AID 651768; details: initial qHTS; 20 nM GST-WRN500-946; 100 nM FORKF; NA = Not Active; read-out: IC50 (μM) Assay ID 651768
T3 construct: made in house; host or cells: insect cells
Procedure: as §1
(§2) Zʹ factor, a measure for assay quality control was calculated using the formula Z′ = 1−(3σS^++3σS^−)∕|μS^+−μS^−| as described previously. In this formula, 3σS^+ represents 3 standard deviations from the mean of positive signals while 3σS^− represents 3 standard deviations from the mean of negative signals. μS^+ and μS^− represent the mean of positive signals and negative signals respectively. Percent activity was derived using in-house software (http://tripod.nih.gov/curvefit/). Dose-response curves were classified as described previously.
(§3) A collection of approximately 350,000 compounds is available for screening which has been assembled from multiple sources to provide diverse chemical scaffolds with known purity, identity and solubility. To perform the high-throughput screen of these compounds, we needed to produce approximately 50 milligrams of recombinant WRN helicase fragment. To accomplish this, we cloned the helicase domain fragment into several plasmids for either insect cell or bacterial expression to optimize expression and yield. We selected expression plasmids for insect cell expression with either a GST or MBP tag (image A in S1 Fig) and purified the protein (image B in S1 Fig). The GST-WRN500-946 fragment isolated from insect cells was used in the high throughput screen with the conditions described in Fig 2C (20 nM GST-WRN500-946, 100 nM FORKF DNA substrate) and a summary of the results can be found on PubChem (National Center for Biotechnology Information. PubChem BioAssay Database; Assay Identifier (AID) = 651768, https://pubchem.ncbi.nlm.nih.gov/bioassay/651768). […] To verify the active compounds, approximately 600 hit molecules were retested in a confirmatory screen also found on PubChem (National Center for Biotechnology Information. PubChem AID = 720497, https://pubchem.ncbi.nlm.nih.gov/bioassay/720497). Of these, a little less than four hundred compounds were confirmed as active compounds.

[5] = biological target: T3, GST-WRN500-946 helicase domain fragment; test: Confirmatory fluorometric helicase screen, PubChem AID 720497; details: 20 nM GST-WRN500-946, 100 nM FORKF, NA = Not Active, read-out: IC50 (μM) Assay ID 720497
Procedure: as §1, §2, §3

[6] = 50 μM compound, full-length WRN 1 nM, FORKR 0.5 nM
[7] = full-length WRN 1 nM, FORKR 0.5 nM

T1 sequence (Q14191 whole entry): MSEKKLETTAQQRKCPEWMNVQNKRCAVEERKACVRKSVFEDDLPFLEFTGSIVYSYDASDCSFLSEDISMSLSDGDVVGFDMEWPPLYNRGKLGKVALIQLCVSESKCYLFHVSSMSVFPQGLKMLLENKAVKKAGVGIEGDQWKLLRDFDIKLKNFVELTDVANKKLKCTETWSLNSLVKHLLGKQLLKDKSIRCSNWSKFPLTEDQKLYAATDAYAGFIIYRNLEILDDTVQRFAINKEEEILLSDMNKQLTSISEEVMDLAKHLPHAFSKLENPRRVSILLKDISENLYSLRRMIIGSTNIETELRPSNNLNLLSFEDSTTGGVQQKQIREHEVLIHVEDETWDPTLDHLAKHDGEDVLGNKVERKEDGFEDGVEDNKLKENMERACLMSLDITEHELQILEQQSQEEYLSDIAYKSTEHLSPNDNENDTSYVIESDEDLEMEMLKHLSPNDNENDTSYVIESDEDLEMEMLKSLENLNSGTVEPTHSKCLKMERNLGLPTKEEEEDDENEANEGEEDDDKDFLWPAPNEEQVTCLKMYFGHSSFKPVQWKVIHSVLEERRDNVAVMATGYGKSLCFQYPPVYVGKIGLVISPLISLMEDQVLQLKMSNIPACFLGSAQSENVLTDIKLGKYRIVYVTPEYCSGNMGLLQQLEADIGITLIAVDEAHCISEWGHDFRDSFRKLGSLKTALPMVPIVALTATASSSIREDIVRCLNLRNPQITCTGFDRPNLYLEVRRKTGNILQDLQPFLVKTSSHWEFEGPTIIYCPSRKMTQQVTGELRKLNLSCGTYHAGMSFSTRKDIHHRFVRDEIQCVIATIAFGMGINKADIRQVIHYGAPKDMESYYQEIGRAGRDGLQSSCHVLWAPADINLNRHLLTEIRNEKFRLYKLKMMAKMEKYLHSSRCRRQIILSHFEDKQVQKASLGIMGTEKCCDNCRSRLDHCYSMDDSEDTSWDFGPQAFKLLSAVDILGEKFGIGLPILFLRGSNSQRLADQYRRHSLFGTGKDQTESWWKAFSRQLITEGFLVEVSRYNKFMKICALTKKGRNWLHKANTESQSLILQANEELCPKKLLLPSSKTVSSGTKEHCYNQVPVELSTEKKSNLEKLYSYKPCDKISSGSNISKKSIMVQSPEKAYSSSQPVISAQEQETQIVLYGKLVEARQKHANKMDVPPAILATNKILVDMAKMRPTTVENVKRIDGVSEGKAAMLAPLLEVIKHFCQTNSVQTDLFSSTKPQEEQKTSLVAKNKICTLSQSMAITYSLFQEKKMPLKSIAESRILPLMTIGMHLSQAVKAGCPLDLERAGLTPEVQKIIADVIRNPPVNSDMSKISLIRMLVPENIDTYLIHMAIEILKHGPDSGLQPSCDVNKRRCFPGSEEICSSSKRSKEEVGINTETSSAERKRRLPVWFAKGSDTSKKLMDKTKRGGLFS
T3 sequence (Q14191 500-946): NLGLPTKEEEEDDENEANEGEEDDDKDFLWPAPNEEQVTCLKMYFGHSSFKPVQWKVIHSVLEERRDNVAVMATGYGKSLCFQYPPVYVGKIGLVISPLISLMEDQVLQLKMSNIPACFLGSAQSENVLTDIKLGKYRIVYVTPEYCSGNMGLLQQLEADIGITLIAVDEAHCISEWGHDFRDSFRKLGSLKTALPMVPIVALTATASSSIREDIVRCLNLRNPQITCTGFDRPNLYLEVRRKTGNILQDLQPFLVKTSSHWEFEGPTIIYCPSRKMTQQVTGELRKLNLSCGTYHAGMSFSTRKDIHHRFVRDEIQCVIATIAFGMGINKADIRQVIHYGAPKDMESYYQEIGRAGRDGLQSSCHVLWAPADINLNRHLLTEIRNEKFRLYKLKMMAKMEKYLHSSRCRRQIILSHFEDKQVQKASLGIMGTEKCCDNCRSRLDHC
T2 sequence (Q14191 500-946): as above

Structure (SMILES)	remaining activity at 50 µM [1, 6] [%]	IC50 [1, 7] [µM]	Reversibility [2]	IC50 [3] [µM]	IC50 [4] [µM]	also measured
CC(C)(C)c1ccc(-c2nc(SCCCOc3ccccc3)n3[nH]c(=O)cc3n2)cc1 [NCGC00128735-02]	5	5	+++	28.1	50.1	
Cc1ccc(-c2nc(SCc3ccc(Br)cc3)n3[nH]c(=O)cc3n2)cc1 [NCGC00129037-02]	7	9	-	12.5	16.8	IC50 [5]: 13.6 µM
Cc1cn(C)c(CC(=O)N2CCN(c3ccccc3F)CC2)c1C(=O)O [NCGC00137904-02]	108					
COc1ccccc1N1CCN(C(=O)Cc2c(C(=O)O)c(C)cn2C)CC1 [NCGC00137902-02]	113					
COc1ccc(N2CCN(C(=O)Cc3c(C(=O)O)c(C)cn3C)CC2)cc1 [NCGC00137930-02]	99					
CCc1nnc(NC(=O)c2cc(-c3ccc(C)o3)nc3ccccc23)s1 [MLS002179845-02]	93					
Cc1nn(-c2ccccc2)c2nc(-c3ccco3)cc(C(=O)O)c12 [MLS000060726-02]	100					
O=c1cc(N2CCNCC2)nc2sc(-c3ccncc3)nn12 [NCGC00183602-01]	0	5	-	6	7.5	IC50 [5]: 6.1 µM
Oc1ccc(C2=CSc3nnc(-c4ccco4)n3N2)cc1O [MLS000551562-03]	92					
Cc1ccc(C(=O)Nc2nnc([S+](=O)([O-])N(C)Cc3ccco3)s2)cc1 [NCGC00120906-02]		9	-	5.6	37.6	remaining activity at 50 µM [1]: 33%; Reversibility of inhibition (in words) [2]: irreversible
Cc1ccc(CN(C)C(=O)CCc2nc(O)c3c4c(sc3n2)CCCC4)o1 [MLS001160745-02]	8	11	+	22.4	44.6	IC50 [5]: 9.6 µM
COc1ccc(-c2cc(C(F)(F)F)nc([S+](=O)([O-])CCC(=O)Nc3ccc(C)cc3)n2)cc1 [NCGC00317517-02]						remaining activity at 50 µM [1]: 93%
CCOc1ccc(-c2nc(SCC(=O)Nc3ccc(C)c(C)c3)n3[nH]c(=O)cc3n2)cc1 [NCGC00128865-02]	20	10	++	1.8	21.1	IC50 [5]: 15.2 µM
CN(Cc1ccco1)[S+](=O)([O-])c1nnc(NC(=O)c2cccc(Cl)c2)s1 [NCGC00120928-02]	13	15	-	12.5	39.8	Reversibility of inhibition (in words) [2]: irreversible
O=C(Nc1nncs1)c1cc(-c2ccco2)nc2ccccc12 [MLS002249549-02]	69					
CN(C)CC(C(=O)Cc1ccccc1)c1ccccc1 (centres unmarked) [MLS002608145-02]						remaining activity at 50 µM [1]: 93%
Cc1ccc(C)c(NC(=O)CN(C)C(=O)c2cccc(-n3cccc3)c2)c1 [MLS001161412-02]	5					
Cc1cc(OCC(=O)Nc2ccc(N3CCN(C(=O)c4ccco4)CC3)cc2)cc(C)c1Cl [MLS000582679-02]	64					
CCCN(CCC)CCCNC(=O)c1cc2c(-c3ccc(OC)c(OC)c3)nn(C)c2s1 [NCGC00108865-03]	109					
Oc1c(C(c2ccccc2)N2CCOCC2)ccc2ccccc12 (centres unmarked) [MLS002694128-02]	0					
O=C(O)c1ccccc1-c1ccc(/C=C/c2cc(C(F)(F)F)nc(O)n2)o1 [MLS000715904-02]	76					
Cc1ccc(N2CCN(c3cnn(-c4nc5ccccc5s4)c(=O)c3Cl)CC2C)cc1 (centres unmarked) [NCGC00295201-02]	9	10	+++	25.1	35.4	
CCc1ccc(NC(=O)c2ccc3c(O)c([S+](=O)([O-])c4ccc(Cl)cc4)c(=O)[nH]c3c2)cc1 [NCGC00123016-02]		50	+++	39.8	26.6	remaining activity at 50 µM [1]: 20%
COc1ccc(N[S+](=O)([O-])c2cc(C(=O)Nc3ccc4nc(C)sc4c3)ccc2C)cc1 [NCGC00348187-01]						remaining activity at 50 µM [1]: 83%
CC1=C(C(=O)Nc2ccccc2)C(c2ccc[nH]2)n2ncnc2N1 (centres unmarked) [NCGC00132363-04]	30	25	-		11.9	IC50 [5]: 7.6 µM
Cc1cc(OC(C)C(=O)Nc2cccc(-c3nc4ccccc4o3)c2)cc(C)c1Cl (centres unmarked) [NCGC00119189-02]	65					
COc1ccc2nc(O)c(-c3noc(-c4cccs4)n3)cc2c1 [NCGC00307457-02]	42					
O=c1[nH]c2ccccc2n2c(-c3ccccc3)nnc12 [MLS000540817-03]	99					
